The record followed here is patent US10752587B2, “Homobispiperidinyl derivatives as liver X receptor beta agonists, compositions and their use” (Merck Sharp & Dohme Corp., priority 2015, dated 2020).

Test [1] deals with T1, glutathione-S-transferase (GST) tagged LXRbeta LBD (ligand binding domain) (Homo sapiens, UniProt P55055).
T1 construct: purchased Invitrogen pv4658.pps
T1 sequence (P55055 222-460 limits assumed): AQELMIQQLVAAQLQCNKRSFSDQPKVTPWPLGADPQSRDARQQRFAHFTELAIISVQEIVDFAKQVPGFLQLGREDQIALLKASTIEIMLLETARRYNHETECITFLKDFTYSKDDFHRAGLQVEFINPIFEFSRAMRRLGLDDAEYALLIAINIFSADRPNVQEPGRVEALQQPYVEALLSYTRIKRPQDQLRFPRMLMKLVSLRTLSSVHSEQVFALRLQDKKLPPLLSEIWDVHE
Kind of test: LanthaScreen TR-FRET Liver X Receptor Coactivator Assay, co-activator recruitment to LXRbeta LBD. Type of test: biochemical. Particulars: for Emax: efficacy at max dose, in relation to reference dual agonist T0901317, read-out: LXR beta Activity @ max dose (%); for pEC50: potency (Inflection Point, IP), co-activator recruitment to LXRbeta LBD, in relation to T0901317, read-out: LXR beta IP. An outline of the steps: (§1)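 Readout is time-resolved FRET between a terbium anti-GST antibody bound to the LBD and a fluorescein-tagged coactivator peptide recruited on ligand binding. Plates were incubated at room temperature before reading. Potency (IP) and efficacy (Emax) are referenced to T0901317.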
For orientation: In TR-FRET formats the signal depends on donor and acceptor labels being close together.

The target of test [2] is T2, glutathione-S-transferase (GST) tagged LXRalpha LBD (ligand binding domain) (Homo sapiens, UniProt Q13133).
T2 construct: purchased Invitrogen pv4655
T2 sequence (Q13133 209-447 limits assumed): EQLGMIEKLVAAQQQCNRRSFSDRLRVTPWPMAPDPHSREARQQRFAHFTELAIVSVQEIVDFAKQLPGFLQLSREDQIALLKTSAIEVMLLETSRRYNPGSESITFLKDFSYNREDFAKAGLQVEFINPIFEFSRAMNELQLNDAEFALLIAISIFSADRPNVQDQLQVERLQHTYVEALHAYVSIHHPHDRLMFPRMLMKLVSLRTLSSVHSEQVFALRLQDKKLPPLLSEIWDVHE
The test can be described thus: LanthaScreen TR-FRET Liver X Receptor Coactivator Assay, co-activator recruitment to LXRalpha LBD. Particulars: for Emax: efficacy at max dose, in relation to reference dual agonist T0901317, read-out: LXR alpha Activity @ max dose (%); for pEC50 / LXR alpha IP (nM): potency (Inflection Point, IP), co-activator recruitment to LXRalpha LBD, in relation to T0901317; for pEC50: read-out: LXR alpha IP. It counts as biochemical. In short, it runs like this:
as §1

pEC50: −log10 of the molar value.

For the compound `CN(C)CCNC(=O)c1ccc(N2CCC(CC3CCN(C(=O)[C@](O)(c4ccccc4)C(F)(F)F)CC3)CC2)cc1Cl` [Example 4-16, 2-chloro-N-[2-(dimethylamino)ethyl]-4-[4-({1-[(2R)-3,3,3-trifluoro-2-hydroxy-2-phenylpropanoyl]piperidin-4-yl}methyl)piperidin-1-yl]benzamide], in test [1], the Emax came out at 64% and the pEC50 is 6.74. In test [2], the Emax was 28% and the pEC50 is 6.16.

Consider `COc1cccc([C@@](O)(C(=O)N2CCC(CC3CCN(c4ccc(C(=O)N(C)C)cc4)CC3)CC2)C(F)F)c1` [Example 2-130, 4-[4-({1-[(2R)-3,3-difluoro-2-hydroxy-2-(3-methoxy-phenyl)propanoyl]piperidin-4-yl}methyl)piperidin-1-yl]-N,N-dimethyl-benzamide], for which, in test [1], the Emax is 31% and the pEC50 is 6.72. Moreover, in test [2], the Emax came to 0% and the “LXR alpha IP (nM)” value was “NO IP”.

As to `CC(C)(C)OC(=O)NC1CN(C(=O)c2ccc(N3CCC(CC4CCN(C(=O)[C@](O)(c5cc(Cl)cc(Cl)c5)C(F)(F)F)CC4)CC3)cc2Cl)C1` [Example 4-25, tert-butyl [1-({2-chloro-4-[4-({1-[(2R)-2-(3,5-dichlorophenyl)-3,3,3-trifluoro-2-hydroxypropanoyl]piperidin-4-yl}methyl)piperidin-1-yl]phenyl}carbonyl)azetidin-3-yl]carbamate], in test [1], the Emax came to 40% and the pEC50 is 8.52. For the same compound, in test [2], the Emax was 0% and the “LXR alpha IP (nM)” value is “NO IP”.

For `COc1cc(F)cc(C(O)(C(=O)N2CCC(CC3CCN(c4ccc(C(=O)N(C)C)c(Cl)n4)CC3)CC2)C(F)(F)F)c1` (stereo not shown) [Example 7-89, 2-chloro-N,N-dimethyl-6-[4-({1-[3,3,3-trifluoro-2-(3-fluoro-5-methoxyphenyl)-2-hydroxypropanoyl]piperidin-4-yl}methyl)piperidin-1-yl]pyridine-3-carboxamide], in test [1], the Emax is 86% and the pEC50 was 8.22. Also, in test [2], the Emax was 19% and the pEC50 was 6.95.

On to `COc1cccc([C@@](O)(C(=O)N2CCC(OC3CCN(c4ccc(C(=O)N(C)C)c(OC)n4)CC3)CC2)C(F)(F)F)c1` [Example 7-154, 2-methoxy-N,N-dimethyl-6-[4-({1-[(2R)-3,3,3-trifluoro-2-hydroxy-2-(3-methoxyphenyl)propanoyl]piperidin-4-yl}oxy)piperidin-1-yl]pyridine-3-carboxamide], for which, in test [1], the Emax was found to be 93% and the pEC50 was 7.33. In addition, in test [2], the Emax amounted to 34% and the pEC50 was 5.53.

As for `COc1cccc([C@@](O)(C(=O)N2CCC(CC3CCN(c4ccc(C(=O)N(C)C)c(C5CC5)n4)CC3)CC2)C(F)(F)F)c1` [Example 7-11, 2-cyclopropyl-N,N-dimethyl-6-[4-({1-[(2R)-3,3,3-trifluoro-2-hydroxy-2-(3-methoxyphenyl)propanoyl]piperidin-4-yl}methyl)piperidin-1-yl]pyridine-3-carboxamide], in test [1], the Emax is 73% and the pEC50 was 7.72. Besides, in test [2], the Emax is 8% and the “LXR alpha IP (nM)” value is reported as “NO IP”.

`CN(C)C(=O)c1ccc(N2CCC(CC3CCN(C(=O)[C@](O)(c4cc(F)cc(Cl)c4)C(F)(F)F)CC3)CC2)nc1Cl` [Example 7-112, 2-chloro-6-[4-({1-[(2R)-2-(3-chloro-5-fluorophenyl)-3,3,3-trifluoro-2-hydroxypropanoyl]piperidin-4-yl}methyl)piperidin-1-yl]-N,N-dimethylpyridine-3-carboxamide]: in test [1], the Emax turned out to be 96% and the pEC50 is 8.52. For the same compound, in test [2], the Emax is 45% and the pEC50 is 7.19.
